# Measured values as given in patent publication US10357484B2, “Heterocyclic compound” (Takeda Pharmaceutical Company Limited, priority 2015, dated 2019).
# How the values were obtained:
# Format in all cases: biochemical
# [1] = target: T1, HDAC9 enzyme (Homo sapiens, UniProt Q9UKV0); assay: HDAC9 enzyme inhibitory assay (HDAC-Glo class IIa); conditions: 1 μM test compound; wells without enzyme = 100% inhibition; read-out: HDAC9 inhibitory rate (%) (1 μM)
# T1 construct: transducing full length HDAC9 gene into Sf-9 insect cells; made in house; host or cells: Sf-9 insect cells
# Experimental: HDAC9 Enzyme Inhibitory Assay
# Enzyme was prepared by transducing full length HDAC9 gene into Sf-9 insect cells and purifying by Ni-NTA affinity column, and HDAC9 enzyme inhibitory activity was evaluated. Enzymes were used after preserved at −70° C. HDAC9 enzyme inhibitory activity of the test compound was measured using HDAC-Glo class IIa (Promega) according to the following experimental method. The test compound diluted with assay buffer (24 mM Tris-HCl (pH 7.5), 1 mM MgCl2, 0.35 mM KCl, 135 mM NaCl, 0.6 mM Glutathione, 0.01% Tween-20) was added to a 384-well plate by each 2 μL. Then, HDAC9 enzyme solution diluted with assay buffer was added thereto by each 2 μL, and the plate was incubated at room temperature for 60 min. After incubated, HDAC substrate-Developer solution prepared according to Promega protocol was added to the 384-well plate by each 4 μL, and the enzyme reaction was started. After reacting at room temperature for 20 min, luminescence level was measured using plate reader Envision (PerkinElmer). The inhibitory activity of each compound was calculated as a relative activity value when luminescence level in wells without enzyme is considered as 100% inhibition.
# [2] = target: T2, HDAC1 enzyme (Homo sapiens, UniProt Q13547); assay: HDAC1 enzyme inhibitory assay (HDAC-Glo I/II Assay kit); conditions: 1 μM test compound; wells without enzyme = 100% inhibition; read-out: HDAC1 inhibitory rate (%) (1 μM)
# T2 construct: transducing full length HDAC1 and HDAC6 genes into Sf-9 insect cells; GST; purchased SignalChem; host or cells: Sf-9 insect cells
# Experimental: (§1) HDAC1/6 Enzyme Inhibitory Assay
# (§2) HDAC1 enzyme and HDAC6 enzyme each prepared by transducing full length HDAC1 and HDAC6 genes into Sf-9 insect cells and purifying by GST affinity column were purchased from SignalChem. Using these enzymes, HDAC1 and/or HDAC6 enzyme inhibitory activities of the compound of the present invention were evaluated. Enzymes were used after preserved at −70° C. HDAC1 or HDAC6 enzyme inhibitory activity of the compound of the present invention was measured using HDAC-Glo™ I/II Assay kit (Promega) according to the following experimental method. The test compound diluted with assay buffer (24 mM Tris-HCl (pH 7.5), 1 mM MgCl2, 0.35 mM KCl, 135 mM NaCl, 0.6 mM Glutathione, 0.01% Tween-20) was added to a 384-well plate by each 2 μL. Then, HDAC1 or HDAC6 enzyme solution diluted with assay buffer was added thereto by each 4 μL, and the plate was incubated at room temperature for 60 min. After incubated, HDAC substrate-Developer solution prepared according to Promega protocol attached to the assay kit was added to the 384-well plate by each 2 μL, and the enzyme reaction was started. After reacting at room temperature for 20 min, luminescence level was measured using plate reader Envision (PerkinElmer). The inhibitory activity of each compound was calculated as a relative activity value when luminescence level in wells without enzyme is considered as 100% inhibition.
# [3] = target: T3, HDAC6 enzyme (Homo sapiens, UniProt Q9UBN7); assay: HDAC6 enzyme inhibitory assay (HDAC-Glo I/II Assay kit); conditions: 1 μM test compound; wells without enzyme = 100% inhibition; read-out: HDAC6 inhibitory rate (%) (1 μM)
# T3 construct: transducing full length HDAC1 and HDAC6 genes into Sf-9 insect cells; GST; purchased SignalChem; host or cells: Sf-9 insect cells
# T3 sequence (Q9UBN7 1-1215): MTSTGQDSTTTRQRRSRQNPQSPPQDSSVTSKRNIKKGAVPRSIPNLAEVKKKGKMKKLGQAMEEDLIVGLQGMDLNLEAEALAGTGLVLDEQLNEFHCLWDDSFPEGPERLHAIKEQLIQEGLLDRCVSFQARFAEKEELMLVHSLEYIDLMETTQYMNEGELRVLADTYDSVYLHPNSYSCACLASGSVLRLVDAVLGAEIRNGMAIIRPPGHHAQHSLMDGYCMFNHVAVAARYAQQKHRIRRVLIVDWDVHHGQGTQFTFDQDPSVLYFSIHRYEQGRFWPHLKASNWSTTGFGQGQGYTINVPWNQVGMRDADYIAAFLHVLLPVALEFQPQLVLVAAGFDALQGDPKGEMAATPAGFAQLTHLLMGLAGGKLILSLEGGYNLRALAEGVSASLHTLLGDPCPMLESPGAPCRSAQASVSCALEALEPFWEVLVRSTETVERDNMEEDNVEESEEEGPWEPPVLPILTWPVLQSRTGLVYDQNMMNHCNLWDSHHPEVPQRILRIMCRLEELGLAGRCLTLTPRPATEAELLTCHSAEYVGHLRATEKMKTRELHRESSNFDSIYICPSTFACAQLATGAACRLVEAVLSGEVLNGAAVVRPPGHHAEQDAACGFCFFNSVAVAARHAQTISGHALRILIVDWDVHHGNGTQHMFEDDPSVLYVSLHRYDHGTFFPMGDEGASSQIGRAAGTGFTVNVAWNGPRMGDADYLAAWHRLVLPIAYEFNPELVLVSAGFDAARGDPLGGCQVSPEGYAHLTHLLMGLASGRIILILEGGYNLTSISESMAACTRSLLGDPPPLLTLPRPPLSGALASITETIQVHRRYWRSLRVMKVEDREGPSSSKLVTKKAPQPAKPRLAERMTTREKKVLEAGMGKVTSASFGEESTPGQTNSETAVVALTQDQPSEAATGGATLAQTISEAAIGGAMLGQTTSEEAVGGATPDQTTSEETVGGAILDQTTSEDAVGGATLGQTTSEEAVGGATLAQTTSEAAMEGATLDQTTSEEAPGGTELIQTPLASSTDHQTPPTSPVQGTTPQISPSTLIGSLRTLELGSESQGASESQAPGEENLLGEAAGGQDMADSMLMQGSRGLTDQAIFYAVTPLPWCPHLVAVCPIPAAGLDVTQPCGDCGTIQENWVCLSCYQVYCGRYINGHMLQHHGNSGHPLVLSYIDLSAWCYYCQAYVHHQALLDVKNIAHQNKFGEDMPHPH
# Experimental: as §1, §2
# T1 sequence (Q9UKV0 whole entry, species assumed): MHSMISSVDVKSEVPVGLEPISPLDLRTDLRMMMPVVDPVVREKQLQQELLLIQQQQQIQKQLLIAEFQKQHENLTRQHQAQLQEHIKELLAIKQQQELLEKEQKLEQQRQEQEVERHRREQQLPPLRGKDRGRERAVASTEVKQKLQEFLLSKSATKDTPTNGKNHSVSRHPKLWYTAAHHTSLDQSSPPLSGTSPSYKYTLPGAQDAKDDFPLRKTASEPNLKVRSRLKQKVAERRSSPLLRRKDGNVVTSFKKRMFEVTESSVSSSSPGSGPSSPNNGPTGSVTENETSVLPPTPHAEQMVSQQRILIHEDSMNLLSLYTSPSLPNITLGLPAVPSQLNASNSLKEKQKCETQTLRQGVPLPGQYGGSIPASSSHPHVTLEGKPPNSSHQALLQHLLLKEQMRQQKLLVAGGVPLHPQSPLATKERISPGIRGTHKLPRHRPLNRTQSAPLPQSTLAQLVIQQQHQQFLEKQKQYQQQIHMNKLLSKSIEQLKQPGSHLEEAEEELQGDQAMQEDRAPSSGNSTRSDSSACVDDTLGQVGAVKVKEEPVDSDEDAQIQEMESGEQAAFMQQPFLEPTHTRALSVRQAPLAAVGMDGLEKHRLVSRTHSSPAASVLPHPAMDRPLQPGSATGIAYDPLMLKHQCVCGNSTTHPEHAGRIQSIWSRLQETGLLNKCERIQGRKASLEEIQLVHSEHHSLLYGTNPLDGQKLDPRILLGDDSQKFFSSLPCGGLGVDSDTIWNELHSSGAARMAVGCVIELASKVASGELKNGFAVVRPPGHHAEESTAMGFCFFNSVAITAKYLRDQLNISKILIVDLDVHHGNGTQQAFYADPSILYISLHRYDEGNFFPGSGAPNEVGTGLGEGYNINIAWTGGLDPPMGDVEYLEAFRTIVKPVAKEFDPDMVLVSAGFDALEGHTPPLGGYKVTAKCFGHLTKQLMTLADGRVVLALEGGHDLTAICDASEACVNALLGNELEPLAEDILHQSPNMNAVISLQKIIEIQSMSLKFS
# T2 sequence (Q13547 whole entry): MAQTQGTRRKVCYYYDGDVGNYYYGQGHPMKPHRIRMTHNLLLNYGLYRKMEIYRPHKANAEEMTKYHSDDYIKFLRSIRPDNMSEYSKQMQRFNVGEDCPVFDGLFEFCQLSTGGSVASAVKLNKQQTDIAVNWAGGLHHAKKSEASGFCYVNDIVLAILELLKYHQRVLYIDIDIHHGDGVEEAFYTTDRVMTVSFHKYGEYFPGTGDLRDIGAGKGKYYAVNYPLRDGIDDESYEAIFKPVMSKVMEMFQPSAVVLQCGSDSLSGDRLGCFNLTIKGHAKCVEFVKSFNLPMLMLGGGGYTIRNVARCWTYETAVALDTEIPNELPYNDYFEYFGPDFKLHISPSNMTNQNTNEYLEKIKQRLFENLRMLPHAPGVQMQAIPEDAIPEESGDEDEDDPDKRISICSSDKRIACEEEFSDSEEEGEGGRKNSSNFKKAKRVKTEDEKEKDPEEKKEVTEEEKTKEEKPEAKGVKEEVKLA
inhibition at 1 µM [1] [%],inhibition at 1 µM [2] [%],inhibition at 1 µM [3] [%],Structure (SMILES)
77,13,99,O=C1c2cc(-c3noc(C(F)(F)F)n3)ccc2CN1Cc1ccccn1 [Example 32]
92,57,100,"CC(c1ccccc1)N1Cc2ncc(-c3noc(C(F)(F)F)n3)cc2C1=O (stereo not drawn) [Example 2, 6-(1-phenylethyl)-3-(5-(trifluoromethyl)-1,2,4-oxadiazol-3-yl)-6,7-dihydro-5H-pyrrolo[3,4-b]pyridin-5-one]"
82,3,92,"C[C@@H](c1cccc2ccccc12)N1Cc2ccc(-c3noc(C(F)(F)F)n3)cc2C1=O [Example 22, 2-((1S)-1-(1-naphthyl)ethyl)-6-(5-(trifluoromethyl)-1,2,4-oxadiazol-3-yl)isoindolin-1-one]"
73,18,96,"C[C@@H](c1ccc(F)cc1OC(F)F)N1Cc2ccc(-c3noc(C(F)(F)F)n3)cc2C1=O [Example 21, 2-((1S)-1-(2-(difluoromethoxy)-4-fluorophenyl)ethyl)-6-(5-(trifluoromethyl)-1,2,4-oxadiazol-3 yl)isoindolin-1-one]"
81,15,98,"O=C1c2cc(-c3noc(C(F)(F)F)n3)ccc2CN1Cc1nccs1 [Example 36, 2-(1,3-thiazol-2-ylmethyl)-6-(5-(trifluoromethyl)-1,2,4-oxadiazol-3-yl)isoindolin-1-one]"
76,23,96,"COc1ccccc1CN1Cc2ccc(-c3noc(C(F)(F)F)n3)cc2C1=O [Example 12, 2-(2-methoxybenzyl)-6-(5-(trifluoromethyl)-1,2,4-oxadiazol-3-yl)isoindolin-1-one]"
82,24,102,"O=C1c2cc(-c3noc(C(F)(F)F)n3)ccc2CN1Cc1ccccc1 [Example 6, 2-benzyl-6-(5-(trifluoromethyl)-1,2,4-oxadiazol-3-yl)isoindolin-1-one]"
89,36,98,"CC(C)(c1ccccc1)N1Cc2ncc(-c3noc(C(F)(F)F)n3)cc2C1=O [Example 3, 6-(2-phenylpropan-2-yl)-3-(5-(trifluoromethyl)-1,2,4-oxadiazol-3-yl)-6,7-dihydro-5H-pyrrolo[3,4-b]pyridin-5-one]"
75,17,97,"O=C1c2cc(-c3noc(C(F)(F)F)n3)ccc2CN1Cc1ccccc1F [Example 24, 2-(2-fluorobenzyl)-6-(5-(trifluoromethyl)-1,2,4-oxadiazol-3-yl)isoindolin-1-one]"
92,40,94,"COc1cc(CN2Cc3ccc(-c4noc(C(F)(F)F)n4)cc3C2=O)ccc1OCC1CCCO1 (stereo not drawn) [Example 31, 2-(3-methoxy-4-(tetrahydrofuran-2-ylmethoxy)benzyl)-6-(5-(trifluoromethyl)-1,2,4-oxadiazol-3-yl)isoindolin-1-one]"
74,12,95,"C[C@@H](c1ccc(F)cc1F)N1Cc2ccc(-c3noc(C(F)(F)F)n3)cc2C1=O [Example 17, 2-((1S)-1-(2,4-difluorophenyl)ethyl)-6-(5-(trifluoromethyl)-1,2,4-oxadiazol-3-yl)isoindolin-1-one]"
78,17,95,"C[C@H](c1ccccc1)N1Cc2ccc(-c3noc(C(F)(F)F)n3)cc2C1=O [Example 7, 2-((1R)-1-phenylethyl)-6-(5-(trifluoromethyl)-1,2,4-oxadiazol-3-yl)isoindolin-1-one]"
94,61,101,"O=C1c2cc(-c3noc(C(F)(F)F)n3)cnc2CN1Cc1ccccc1 [Example 1, 6-benzyl-3-(5-(trifluoromethyl)-1,2,4-oxadiazol-3-yl)-6,7-dihydro-5H-pyrrolo[3,4-b]pyridin-5-one]"
84,20,96,"Cc1csc(CN2Cc3ccc(-c4noc(C(F)(F)F)n4)cc3C2=O)n1 [Example 37, 2-((4-methyl-1,3-thiazol-2-yl)methyl)-6-(5-(trifluoromethyl)-1,2,4-oxadiazol-3-yl)isoindolin-1-one]"
28,4,99,"C[C@H](c1cccc2ccccc12)N1Cc2ccc(-c3noc(C(F)(F)F)n3)cc2C1=O [Example 23, 2-((1R)-1-(1-naphthyl)ethyl)-6-(5-(trifluoromethyl)-1,2,4-oxadiazol-3-yl)isoindolin-1-one]"
64,11,94,"O=C1c2cc(-c3noc(C(F)(F)F)n3)ccc2CN1Cc1ccccc1Cl [Example 25, 2-(2-chlorobenzyl)-6-(5-(trifluoromethyl)-1,2,4-oxadiazol-3-yl)isoindolin-1-one]"
87,19,99,"C[C@@H](c1ccccc1)N1Cc2ccc(-c3noc(C(F)(F)F)n3)cc2C1=O [Example 8, 2-((1S)-1-phenylethyl)-6-(5-(trifluoromethyl)-1,2,4-oxadiazol-3-yl)isoindolin-1-one]"
89,27,91,"COc1ccc([C@H](C)N2Cc3ccc(-c4noc(C(F)(F)F)n4)cc3C2=O)cc1 [Example 18, 2-((1S)-1-(4-methoxyphenyl)ethyl)-6-(5-(trifluoromethyl)-1,2,4-oxadiazol-3-yl)isoindolin-1-one]"
85,20,95,"C[C@@H](c1cccc(F)c1)N1Cc2ccc(-c3noc(C(F)(F)F)n3)cc2C1=O [Example 16, 2-((1S)-1-(3-fluorophenyl)ethyl)-6-(5-(trifluoromethyl)-1,2,4-oxadiazol-3-yl)isoindolin-1-one]"
